Source: the NIST ThermoML archive (doi:10.1007/s10765-014-1828-5)

Conditions: 101.33 kPa, Liquid, Oscillating crucible method

[Ba+2].[F-].[F-] [barium difluoride]
Conditions	viscosity [mPa·s]
1620.2 K	3.56
1642.3 K	3.46
1657.3 K	3.309
1682.7 K	3.165
1697.5 K	2.995
1722.7 K	2.899
1723.2 K	2.856
1738.8 K	2.766
1763.4 K	2.665
1779.4 K	2.57
1802.5 K	2.461
1819.5 K	2.368
1842.3 K	2.3
1860.1 K	2.237
1880.4 K	2.172

[Ca+2].[F-].[F-] [calcium fluoride]
Conditions	viscosity [mPa·s]
1703.3 K	2.932
1703.6 K	2.878
1713.5 K	2.82
1722.7 K	2.77
1732.2 K	2.735
1742.2 K	2.657
1751.6 K	2.623
1760.6 K	2.562
1761.2 K	2.586
1763.4 K	2.571
1770.5 K	2.542
1780.9 K	2.476
1790.5 K	2.432
1800.8 K	2.408
1807.3 K	2.371
1820.5 K	2.34
1832.8 K	2.265
1839.9 K	2.268
1847.7 K	2.223
1858.7 K	2.185
1868.1 K	2.149

[F-].[F-].[Mg+2] [magnesium difluoride]
Conditions	viscosity [mPa·s]
1514.7 K	2.416
1534.7 K	2.25
1554.7 K	2.257
1574.1 K	2.09
1613.7 K	2.081
1633.2 K	2.036
1653.4 K	1.98
1673.9 K	1.895
1690.6 K	1.784
1716.7 K	1.763
1731 K	1.758
1751 K	1.68
1773 K	1.632
1792.8 K	1.588
1814.2 K	1.602
1831.8 K	1.552
1853.2 K	1.448

[F-].[F-].[Sr+2] [strontium fluoride]
Conditions	viscosity [mPa·s]
1743.4 K	3.023
1749.8 K	2.953
1750.4 K	2.972
1762.4 K	2.915
1769 K	2.866
1780.9 K	2.804
1788.6 K	2.729
1796.9 K	2.698
1810.3 K	2.628
1817.9 K	2.584
1826.5 K	2.561
1833.2 K	2.512
1846.4 K	2.449
1852.2 K	2.401
1854.3 K	2.405
1864.6 K	2.374
